According to patent publication US10662203B2, “Pyrido[2,3-b]indole compounds for the treatment and prophylaxis of bacterial infection” (Hoffmann-La Roche Inc., priority 2017, dated 2020):

Tests used:
Test in all cases: 50% growth inhibitory concentration (IC50) determination assay
Format in all cases: cell-based
Conditions in all cases: Iso-Sensitest broth, 0.098 = detection limit
[1] = system: A. baumannii (ATCC17978)
Experimental: (§1) Stock compounds in DMSO were serially two-fold diluted (range from 50 to 0.097 μM final concentration) in 384 wells microtiter plates and inoculated with 49 μL the bacterial suspension in Iso-Sensitest broth medium to have a final cell concentration of ˜5×10^5 CFU/mL in a final volume/well of 50 μL/well. Microtiter plates were incubated at 35±2° C. Bacterial cell growth was determined with the measurement of optical density at λ=600 nm each 20 minutes over a time course of 16 h. […] GP-6 (Example 4.131 disclosed in WO 2012/125746 A1) was used as the reference compound in Table 6-8. […] The data of IC50 over S. aureus (ATCC29213), K. pneumoniae (ATCC10031), and A. baumannii (ATCC17978) are illustrated in Table 6.

[2] = system: K. pneumoniae (ATCC10031)
Experimental: as §1

[3] = system: S. aureus (ATCC29213)
Experimental: as §1

[4] = Acinetobacter baumannii, ATCC17978, A. baumannii ATCC17978

Row | Compound | IC50 [1, 4] | IC50 ([2]; Klebsiella pneumoniae) | IC50 ([3]; Staphylococcus aureus) | IC50 ([1]; A. baumannii ATCC17978) | IC50 [2] | IC50 [3]
1 | CNc1cc(F)c(F)c2c1[nH]c1ncc(-c3cnc4c(c3)c(=O)c(C(=O)O)cn4C)c(N3CCN(C(C)C)CC3)c12 [Example 1.234] | 0.821 µM | < 0.098 µM | 0.283 µM | – | – | –
2 | CNc1cc(F)c(F)c2c1[nH]c1ncc(-c3cnc4c(c3)c(=O)c(C(=O)O)cn4C)c(N3CCO[C@H](CN(C)C)C3)c12 [Example 4.02A, (R)-6-(4-(2-((dimethylamino)methyl)morpholino)-5,6-difluoro-8-(methylamino)-9H-pyrido[2,3-b]indol-3-yl)-1-methyl-4-oxo-1,4-dihydro-1,8-naphthyridine-3-carboxylic acid] | 0.437 µM | < 0.098 µM | 0.197 µM | – | – | –
3 | CNc1cc(F)cc2c1[nH]c1ncc(-c3cnc4c(c3)c(=O)c(C(=O)O)cn4C)c(N3C[C@@H]4OCCN(C)[C@@H]4C3)c12 [Example 3.22B] | 0.256 µM | < 0.098 µM | < 0.098 µM | – | – | –
4 | CNc1cc(F)c(F)c2c1[nH]c1ncc(-c3cnc4c(c3)c(=O)c(C(=O)O)cn4C)c(N3CCNC(C(F)(F)F)C3)c12 (stereo not drawn) [Example 1.09] | 0.818 µM | 0.104 µM | < 0.098 µM | – | – | –
5 | CNc1c(F)cc(F)c2c1[nH]c1ncc(-c3cnc4c(c3)c(=O)c(C(=O)O)cn4C3CCNC3)c(N(C)C)c12 (stereo not drawn) [Example 1.107] | 0.699 µM | < 0.098 µM | 0.189 µM | – | – | –
6 | CNc1cc(F)c(F)c2c1[nH]c1ncc(-c3cnc4c(c3)c(=O)c(C(=O)O)cn4C)c(N(C)CCOC)c12 [Example 1.33] | 0.252 µM | < 0.098 µM | < 0.098 µM | – | – | –
7 | CNc1c(F)cc(F)c2c1[nH]c1ncc(-c3cnc4c(c3)c(=O)c(C(=O)O)cn4C)c(N3CCOCC3)c12 [Example 1.105] | 0.216 µM | < 0.098 µM | 5.22 µM | – | – | –
8 | CNc1cc(F)cc2c1[nH]c1ncc(-c3cnc4c(c3)c(=O)c(C(=O)O)cn4C)c(N3CCSCC3)c12 [Example 1.66] | 0.415 µM | < 0.098 µM | < 0.098 µM | – | – | –
9 | CNc1cc(F)c(F)c2c1[nH]c1ncc(-c3cnc4c(c3)c(=O)c(C(=O)O)cn4C)c(N3CCC(OC)CC3)c12 [Example 1.40] | 0.364 µM | 0.264 µM | < 0.098 µM | – | – | –
10 | CNc1cc(F)c(F)c2c1[nH]c1ncc(-c3cnc4c(c3)c(=O)c(C(=O)O)cn4C)c(N3C[C@H](C)[C@@H](N(C)C)C3)c12 [Example 1.167] | – | – | – | 0.143 µM | < 0.098 µM | < 0.098 µM
11 | CCn1cc(C(=O)O)c(=O)c2cc(-c3cnc4[nH]c5c(NC)cc(F)c(F)c5c4c3N(C)CCOC)cnc21 [Example 1.06] | 0.849 µM | 0.17 µM | < 0.098 µM | – | – | –
12 | CCn1cc(C(=O)O)c(=O)c2cc(-c3cnc4[nH]c5c(NC)c(F)c(F)cc5c4c3N(C)C)cnc21 [Example 1.20] | 0.209 µM | 0.141 µM | < 0.098 µM | – | – | –
13 | CNc1cc(F)cc2c1[nH]c1ncc(-c3cnc4c(c3)c(=O)c(C(=O)O)cn4C)c(N3C[C@H]4OCCN(C)[C@H]4C3)c12 [Example 3.22A] | 0.363 µM | < 0.098 µM | < 0.098 µM | – | – | –
14 | CNc1cc(F)c(F)c2c1[nH]c1ncc(-c3cnc4c(c3)c(=O)c(C(=O)O)cn4CCN3CCN(C)CC3)c(N(C)C)c12 [Example 1.29] | 0.405 µM | < 0.098 µM | < 0.098 µM | – | – | –
15 | CNc1cc(F)c(F)c2c1[nH]c1ncc(-c3cnc4c(c3)c(=O)c(C(=O)O)cn4C)c(N3CCN(C)CC3)c12 [Example 1.226] | 0.207 µM | < 0.098 µM | 0.11 µM | – | – | –
16 | CNc1cc(F)c(F)c2c1[nH]c1ncc(-c3cnc4c(c3)c(=O)c(C(=O)O)cn4C)c(N3CC4[C@H](CCN4CCO)C3)c12 (stereo partly drawn) [Example 1.261] | 0.215 µM | < 0.098 µM | < 0.098 µM | – | – | –
17 | CNc1cc(Cl)cc2c1[nH]c1ncc(-c3cnc4c(c3)c(=O)c(C(=O)O)cn4C)c(N3CC4C(N(C)C)CO[C@@H]4C3)c12 (stereo partly drawn) [Example 1.277] | 0.48 µM | < 0.098 µM | < 0.098 µM | – | – | –
18 | CCn1cc(C(=O)O)c(=O)c2cc(-c3cnc4[nH]c5c(NC)cc(F)cc5c4c3N(C)C)cnc21 [Example 1.19] | 0.283 µM | 0.145 µM | < 0.098 µM | – | – | –
19 | CNc1cc(F)cc2c1[nH]c1ncc(-c3cnc4c(c3)c(=O)c(C(=O)O)cn4C(C)(C)CN3CCCC3)c(N(C)C)c12 [Example 1.17] | 0.515 µM | 0.101 µM | < 0.098 µM | – | – | –
20 | CNc1cc(F)c(F)c2c1[nH]c1ncc(-c3cnc4c(c3)c(=O)c(C(=O)O)cn4C)c(N3CCC4(C[C@H]4N(C)C)C3)c12 (stereo partly drawn) [Example 6.02, 6-(4-cis-(2-(dimethylamino)-5-azaspiro[2.4]heptan-5-yl)-5,6-difluoro-8-(methylamino)-9H-pyrido[2,3-b]indol-3-yl)-1-methyl-4-oxo-1,4-dihydro-1,8-naphthyridine-3-carboxylic acid] | 0.389 µM | 0.166 µM | < 0.098 µM | – | – | –
21 | CNc1cc(F)c(F)c2c1[nH]c1ncc(-c3cnc4c(c3)c(=O)c(C(=O)O)cn4C)c(N3CCO[C@@H](CN(C)C)C3)c12 [Example 4.02B, (S)-6-(4-(2-((dimethylamino)methyl)morpholino)-5,6-difluoro-8-(methylamino)-9H-pyrido[2,3-b]indol-3-yl)-1-methyl-4-oxo-1,4-dihydro-1,8-naphthyridine-3-carboxylic acid] | 0.408 µM | < 0.098 µM | 0.207 µM | – | – | –
22 | CNc1cc(F)cc2c1[nH]c1ncc(-c3cnc4c(c3)c(=O)c(C(=O)O)cn4C)c(N3CCC(CN(C)C4CC4)C3)c12 (stereo not drawn) [Example 1.99] | 0.771 µM | < 0.098 µM | < 0.098 µM | – | – | –
23 | CNc1cc(F)c(F)c2c1[nH]c1ncc(-c3cnc4c(c3)c(=O)c(C(=O)O)cn4C)c(N3CC4[C@H](CC[C@H]4CN(C)C)C3)c12 (stereo partly drawn) [Example 1.218] | 0.497 µM | < 0.098 µM | < 0.098 µM | – | – | –

More lines, now with the values ahead:

Row | IC50 [1, 4] | IC50 ([2]; Klebsiella pneumoniae) | IC50 ([3]; Staphylococcus aureus) | IC50 ([1]; A. baumannii ATCC17978) | IC50 [2] | IC50 [3] | Compound
24 | 0.147 µM | < 0.098 µM | < 0.098 µM | – | – | – | CNc1cc(F)c(F)c2c1[nH]c1ncc(-c3cnc4c(c3)c(=O)c(C(=O)O)cn4C)c(N3CCO[C@@H](C)C3)c12 [Example 1.36]
25 | 0.112 µM | < 0.098 µM | < 0.098 µM | – | – | – | CNc1cc(F)cc2c1[nH]c1ncc(-c3cnc4c(c3)c(=O)c(C(=O)O)cn4C)c(N3CCO[C@H](C)C3)c12 [Example 1.49]
26 | 0.112 µM | < 0.098 µM | < 0.098 µM | – | – | – | CNc1cc(F)cc2c1[nH]c1ncc(-c3cnc4c(c3)c(=O)c(C(=O)O)cn4C)c(N3CCO[C@@H](C)C3)c12 [Example 1.50]
27 | 0.155 µM | < 0.098 µM | < 0.098 µM | – | – | – | CNc1cc(F)c(F)c2c1[nH]c1ncc(-c3cnc4c(c3)c(=O)c(C(=O)O)cn4C)c(N3CCOCC3)c12 [Example 1.08]
28 | < 0.098 µM | < 0.098 µM | < 0.098 µM | – | – | – | CNc1cc(F)cc2c1[nH]c1ncc(-c3cnc4c(c3)c(=O)c(C(=O)O)cn4NC)c(N3CC4[C@H](CCN4C)C3)c12 (stereo partly drawn) [Example 1.210]
29 | 0.11 µM | < 0.098 µM | < 0.098 µM | – | – | – | CNc1cc(F)cc2c1[nH]c1ncc(-c3cnc4c(c3)c(=O)c(C(=O)O)cn4C)c(N3CCOCC3)c12 [Example 1.48]
30 | 0.201 µM | < 0.098 µM | < 0.098 µM | – | – | – | CNc1cc(F)c(F)c2c1[nH]c1ncc(-c3cnc4c(c3)c(=O)c(C(=O)O)cn4C)c(N3CCN(C4CC4)CC3)c12 [Example 1.204]
31 | 0.109 µM | < 0.098 µM | < 0.098 µM | – | – | – | CNc1cc(F)c(F)c2c1[nH]c1ncc(-c3cnc4c(c3)c(=O)c(C(=O)O)cn4C)c(N3CC(CN(C)C)C(F)(F)C3)c12 (stereo not drawn) [Example 1.143]
32 | 0.164 µM | < 0.098 µM | < 0.098 µM | – | – | – | CNc1cc(F)cc2c1[nH]c1ncc(-c3cnc4c(c3)c(=O)c(C(=O)O)cn4C3CCN(C)C3)c(N3CCOCC3)c12 (stereo not drawn) [Example 1.81]
33 | 0.066 µM | < 0.098 µM | < 0.098 µM | – | – | – | CNc1cc(F)cc2c1[nH]c1ncc(-c3cnc4c(c3)c(=O)c(C(=O)O)cn4C)c(N3CCC(F)(CN(C)C)C3)c12 (stereo not drawn) [Example 1.109]
34 | 0.103 µM | < 0.098 µM | < 0.098 µM | – | – | – | CNc1cc(F)c(F)c2c1[nH]c1ncc(-c3cnc4c(c3)c(=O)c(C(=O)O)cn4C)c(N3C[C@@H]4OCCN(C)[C@@H]4C3)c12 [Example 3.14B]
35 | 0.151 µM | < 0.098 µM | < 0.098 µM | – | – | – | CNc1cc(F)c(F)c2c1[nH]c1ncc(-c3cnc4c(c3)c(=O)c(C(=O)O)cn4C)c(N3CCC(CNC4CC4)C3)c12 (stereo not drawn) [Example 1.137]
36 | 0.151 µM | < 0.098 µM | < 0.098 µM | – | – | – | CNc1cc(F)c(F)c2c1[nH]c1ncc(-c3cnc4c(c3)c(=O)c(C(=O)O)cn4NC)c(N3CC[C@H]4CCN(C)C4C3)c12 (stereo partly drawn) [Example 1.199]
37 | 0.152 µM | < 0.098 µM | < 0.098 µM | – | – | – | CNc1cc(F)c(F)c2c1[nH]c1ncc(-c3cnc4c(c3)c(=O)c(C(=O)O)cn4NC)c(N3C[C@H]4OCCN(C)[C@H]4C3)c12 [Example 3.13A]
38 | 0.151 µM | < 0.098 µM | < 0.098 µM | – | – | – | CNc1cc(F)c(F)c2c1[nH]c1ncc(-c3cnc4c(c3)c(=O)c(C(=O)O)cn4NC)c(N3CCC4(CCCN4C)C3)c12 (stereo not drawn) [Example 1.240]
39 | 0.088 µM | < 0.098 µM | < 0.098 µM | – | – | – | CNc1cc(F)c(F)c2c1[nH]c1ncc(-c3cnc4c(c3)c(=O)c(C(=O)O)cn4C)c(N3CCC(F)(CN(C)C)C3)c12 (stereo not drawn) [Example 1.108]
